Test results from patent US20240239790A1, “7-Morpholino-1,6-Naphthyridin-5-yl Derivatives and Pharmaceutical Compositions Thereof Useful as DNA-PK Inhibitor” (adMare Therapeutics Society, priority 2021, published 2024).

molecular target: T1, DNA-PK phosphorylation at Serine 2056 (Homo sapiens, UniProt P78527); experiment: Cellular Assay for Inhibition of DNA-PK Phosphorylation at Serine 2056 in FaDu cells (sandwich ELISA, neocarzinostatin); format: cell-based; conditions: pSer2056 DNA-PK, Table 3
T1 construct: FaDu cells were purchased from ATCC; host or cells: FaDu
Protocol: FaDu cells were purchased from ATCC and maintained in MEM alpha medium (Life Technologies, cat. no. 12561) supplemented with 10% fetal bovine serum, and 1% GlutaMAX at 37° C. supplemented with 5% CO2. 50,000 cells were seeded to each well of a 96-well cell culture plate in 50 μL of culture medium and incubated for 16-24 hours. Three-fold serially diluted compounds were prepared in DMSO. Culture media was used to prepare compound treatments to 0.3% DMSO (dimethyl sulphoxide) content. Compound treatments were added to the cells for 1 hour prior incubation, followed by the addition of neocarzinostatin in fresh culture medium to 1 μg/mL final concentration for an additional 2 hours incubation to induce DNA DSBs (double-strand breaks). DMSO controls were incubated with fresh culture medium alone for the additional two hours incubation. The cells were then lysed and frozen at −20° C. Cell lysates were thawed on wet ice and protein concentrations quantified by BCA Protein Assay (Thermo #23225). Lysis buffer was used to normalize lysates by protein content and all lysates were then investigated by sandwich ELISA by means of DNA-PK-specific antibodies (Abcam ab44815: total DNA-PK; ab124918: phosphoserine-2056 DNA-PK) in sandwich ELISA format on the MSD S600MM platform (MesoScale Discovery). % inhibition was calculated for all data points: =1−(DATA_PT−AVERAGE(DMSO controls))/(AVERAGE(NCS controls)−AVERAGE(DMSO controls)). Logarithm of the molar concentration of compound was plotted against percent inhibition to calculate IC50 values, with curve fit settings for data fit to log(inhibitor) vs. normalized response—Variable slope using curve fit software (GraphPad Prism).

Compound | IC50 [nM]
CN1CCN(c2ccc(N[C@H]3CC[C@@H](Oc4nc(N5CCOCC5)cc5ncc(NS(C)(=O)=O)cc45)CC3)nc2)CC1 [LFA2001, N-[5-[4-[[5-(4-methylpiperazin-1-yl)-2-pyridyl]amino]cyclohexoxy]-7-morpholino-1,6-naphthyridin-3-yl]methanesulfonamide] | < 100
CS(=O)(=O)Nc1cnc2cc(N3CCOCC3)nc(O[C@H]3CC[C@@H](Nc4cc5c(cn4)CNCC5)CC3)c2c1 [LFA2002, N-[7-morpholino-5-[4-(5,6,7,8-tetrahydro-2,7-naphthyridin-3-ylamino)cyclohexoxy]-1,6-naphthyridin-3-yl]methanesulfonamide] | 100 to 1000
CS(=O)(=O)Nc1cnc2cc(N3CCOCC3)nc(O[C@H]3CC[C@@H](Nc4ccc5c(n4)CCNC5)CC3)c2c1 [LFA2003, N-[7-morpholino-5-[4-(5,6,7,8-tetrahydro-1,6-naphthyridin-2-ylamino)cyclohexoxy]-1,6-naphthyridin-3-yl]methanesulfonamide] | 100 to 1000
CS(=O)(=O)Nc1cnc2cc(N3CCOCC3)nc(O[C@H]3CC[C@@H](Nc4ncc5c(n4)CNCC5)CC3)c2c1 [LFA2004, N-[7-morpholino-5-[4-(5,6,7,8-tetrahydropyrido[3,4-d]pyrimidin-2-ylamino)cyclohexoxy]-1,6-naphthyridin-3-yl]methanesulfonamide] | 100 to 1000
CS(=O)(=O)Nc1cnc2cc(N3CCOCC3)nc(O[C@H]3CC[C@@H](Nc4ncc5c(n4)CCNC5)CC3)c2c1 [LFA2005, N-[7-morpholino-5-[4-(5,6,7,8-tetrahydropyrido[4,3-d]pyrimidin-2-ylamino)cyclohexoxy]-1,6-naphthyridin-3-yl]methanesulfonamide] | 100 to 1000
CN1CCC(Oc2ccc(N[C@H]3CC[C@@H](Oc4nc(N5CCOCC5)cc5ncc(NS(C)(=O)=O)cc45)CC3)nc2)C1 (stereo partly drawn) [LFA2006, N-[5-[4-[[5-(1-methylpyrrolidin-3-yl)oxy-2-pyridyl]amino]cyclohexoxy]-7-morpholino-1,6-naphthyridin-3-yl]methanesulfonamide] | < 100
CN1CCc2nc(NC3CCC(Oc4nc(N5CCOCC5)cc5ncc(NS(C)(=O)=O)cc45)CC3)ncc2C1 (stereo not drawn) [LFA2007, N-[5-[4-[(6-methyl-7,8-dihydro-5H-pyrido[4,3-d]pyrimidin-2-yl)amino]cyclohexoxy]-7-morpholino-1,6-naphthyridin-3-yl]methanesulfonamide] | < 100
CN1CCc2nc(N[C@H]3CC[C@@H](Oc4nc(N5CCOCC5)cc5ncc(NS(C)(=O)=O)cc45)CC3)ccc2C1 [LFA2008, N-[5-[4-[(6-methyl-7,8-dihydro-5H-1,6-naphthyridin-2-yl)amino]cyclohexoxy]-7-morpholino-1,6-naphthyridin-3-yl]methanesulfonamide] | < 100
Oc1cnc2cc(N3CCOCC3)nc(O[C@H]3CC[C@@H](Nc4ncc(N5CCN(CC(F)F)CC5)cn4)CC3)c2c1 [LFA2012] | < 100
CS(=O)(=O)Nc1cnc2cc(N3CCOCC3)nc(O[C@H]3CC[C@@H](Nc4ncc(N5CCN(CCF)CC5)cn4)CC3)c2c1 [LFA2013] | < 100
CS(=O)(=O)Nc1cnc2cc(N3CCOCC3)nc(O[C@H]3CC[C@@H](Nc4ncc(N5CCNCC5)cn4)CC3)c2c1 [LFA2014, N-[7-morpholino-5-[4-[(5-piperazin-1-ylpyrimidin-2-yl)amino]cyclohexoxy]-1,6-naphthyridin-3-yl]methanesulfonamide] | 100 to 1000
CS(=O)(=O)Nc1cnc2cc(N3CCOCC3)nc(O[C@H]3CC[C@@H](Nc4ncc(N5CC6CNCC6C5)cn4)CC3)c2c1 (stereo partly drawn) [LFA2015, N-[5-[4-[[5-(2,3,3a,4,6,6a-hexahydro-1H-pyrrolo[3,4-c]pyrrol-5-yl)pyrimidin-2-yl]amino]cyclohexoxy]-7-morpholino-1,6-naphthyridin-3-yl]methanesulfonamide] | 100 to 1000
